The source of these data is US20030055046A1, “Novel pyrido cyclohexenyl phenyl carboxamides tocolytic oxytocin receptor antagonists” (Wyeth, priority 2001, published 2003).

This test deals with T1, human vasopressin V2 receptor subtype (Homo sapiens, UniProt P30518).
T1 construct: host or cells: CHO cells, stably transfected (pZeoSV vector)
Briefly: Vasopressin binding in CHO cell membranes expressing human vasopressin V2 subtype receptors. The conditions noted are these: [3H]arginine vasopressin; for IC50: value in parentheses. The source says: Vasopressin Binding in Chinese Hamster Ovary Cell Membranes Expressing Human Vasopressin V2 Subtype Receptors
Chinese Hamster Ovary (CHO) cells stably transfected with the human V2 subtype receptors were obtained from M. Thibonnier, Case Western Reserve University School of Medicine, Cleveland, Ohio.
A. Passaging and Amplification of Cells:
CHO cells transfected with the human vasopressin V2 subtype receptors obtained from M. Thibonnier (pZeoSV vector) are allowed to grow to confluency (approx. >90%) in T-150 flasks under sterile conditions, in a cell culture medium consisting of F-12 Nutrient Mixture (HAM) with L-glutamine (Gibco Cat.# 11765-054) containing 15 mM HEPES (Gibco Cat.# 15630-080), 1% antibiotic/antimycotic (add 5 mL 100×, Gibco Cat.# 15240-062 per 500 mL F-12), 250 μg/mL Zeocin (add 1.25 mL of 100 mg/mL Invitrogen R-250-01 per 500 mL F-12) and 10% Fetal Bovine Serum (Qualified, heat inactivated, Gibco Cat.# 16140-063). The medium is removed by aspiration and the cells washed with 10 mL of Hank's Balanced Salt solution (Gibco Cat.# 14175-095). The salt solution is removed by aspiration and the cells trypsinized with 5 mL of trypsin-EDTA (0.05% trypsin, 0.53 mM EDTA-4Na, Gibco Cat.# 25300-070) for 1 min. The trypsin is removed by aspiration and the cells dislodged by tapping. Cell Culture medium (e.g. 30 mL for 1:30 split) is immediately added and mixed well to inactivate trypsin. 1 mL of detached cells is added to new culture flasks containing fresh Cell Culture medium (e.g. into 25 mL per T-150 flask), and mixed gently. The cells are incubated at 37° C. in 5% CO2. The medium is changed at 3 to 4 day interval (or as appropriate). The cells grow to confluency (approx. >75%-95%) within 7-8 days. All steps are done under sterile conditions.
The cells are washed twice gently with Hank's Balanced Salt solution (e.g. use 10 mL per T-150 flask). The excess solution is removed and the cells bathed for 15-30 min. in an enzyme-free Cell Dissociation Buffer (e.g. use 8 mL Hank's Based, Gibco Cat.# 13150-016 per T-150 flask) until cells are loosened. The contents are transferred to centrifuge tubes (50 mL) kept in an ice bath. All subsequent steps are done at 4° C. The tubes are centrifuged at 300×g for 15 min (1380 rpm on SORVAL, Model RT6000D, using the rotor for 50 mL tubes). The supernatant is discarded and the cells suspended in homogeneizing buffer(10 mM Tris-HCl containing 0.25 M sucrose and 1 mM EDTA, pH 7.4) ensuring that the volume of the buffer is about ten times the volume of the cell pellet. The cells are pooled into a centrifuge tube (50 mL) and homogenized with Polytron at setting 6 for 10 sec. The homogenate is transferred into a Potter-Elvjehm homogeneizer and homogenized with 3 strokes. The homogenate is centrifuged at 1500×g for 60 min at 4° C. (3100 rpm using SORVAL, model RT6000D, using the rotor for 50 mL tubes). The pellet is discarded. The supernatant is centrifuged at 100,000×g for 60 min. at 4° C. (Beckman L8-80M ultracentrifuge; spin at 37,500 rpm with rotor type 70 Ti for 50 mL tubes; 38,000 rpm with type 80Ti for 15 mL tubes; or 35,800 rpm with rotor type 45Ti). The supernatant is discarded and the pellet suspended in 3 to 4 mL of Tris buffer (50 mM TRIS-HCl, pH 7.4). The protein content is estimated by the Bradford or Lowry method. The volume of the membrane suspension is adjusted with the membrane buffer (50 mM Tris-HCl containing 0.1% BSA and 0.1 mM PMSF) to give 3.0 mg/mL (or as appropriate) of protein. The membranes are aliquoted and stored at −70° C.
C. Radioligand Binding Assay:
In wells of a 96-well format microtiter plate, is added 90, 110 or 130 μL (to make up a final volume of 200 μL) of assay buffer containing 50 mM of Tris-HCl (pH 7.4), […], 1 mg % aprotinin, 1 mg % leupeptin, 2 mg % 1,10-phenanthroline, 10 mg % trypsin inhibitor, and 0.1 mM PMSF. The inhibitors are added on the day of the experiment. […]

Structures can show the parent of a compound that is named as a salt.

T1 sequence (P30518 whole entry): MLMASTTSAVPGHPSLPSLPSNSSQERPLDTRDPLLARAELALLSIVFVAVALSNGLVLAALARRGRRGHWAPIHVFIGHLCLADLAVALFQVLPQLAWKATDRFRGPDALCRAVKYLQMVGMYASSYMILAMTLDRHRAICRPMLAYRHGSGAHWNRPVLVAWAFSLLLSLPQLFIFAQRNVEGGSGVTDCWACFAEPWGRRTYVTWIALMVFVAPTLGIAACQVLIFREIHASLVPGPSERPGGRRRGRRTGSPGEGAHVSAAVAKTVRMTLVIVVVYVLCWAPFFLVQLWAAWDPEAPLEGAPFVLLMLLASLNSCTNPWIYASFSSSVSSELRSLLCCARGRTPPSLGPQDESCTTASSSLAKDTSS

Regarding `COc1cc(C2=CCCCC2)c(Cl)cc1C(=O)N1Cc2ccc(C(=O)N(C)Cc3cccnc3)n2Cc2ccccc21` [Example 1, 10-(5-Chloro-4-cyclohex-1-en-1-yl-2-me3thoxybenzoyl)-N-methyl-N-(pyridin-3-ylmethyl)-10,11-dihydro-5H-pyrrolo [2,1-c][1,4]benzodiazepine-3-carboxamide], the IC50 (usually the concentration that gives 50% inhibition) was found to be 1.19 µM.
On the same count and under the same terms, under `COc1cc(C2=CCCCC2)c(Cl)cc1C(=O)N1Cc2ccc(C(=O)N(C)Cc3cccnc3)n2Cc2ccccc21` [Example 2, 10-(5-Chloro-4-cyclohex-1-en-1-yl-2-methoxybenzoyl)-N-methyl-N-(pyridin-3-ylmethyl)-10,11-dihydro-5H-pyrrolo[2,1-c][1,4]benzodiazepine-3-carboxamide L-(+)-tartaric acid salt hemihydrate] stands 1.42 µM.
Consider `CC1=C(c2ccc(C(=O)N3Cc4ccc(C(=O)N(C)Cc5cccnc5)n4Cc4ccccc43)cc2C)CCC[C@H]1O` [Example 3, 10-[4-((3R)-3-Hydroxy-2-methyl-cyclohex-1-en-1-yl)-3-methyl-benzoyl]-10,11-dihydro-5H-pyrrolo[2,1-c][1,4]benzodiazepine-3-carboxylic acid methyl-pyridin-3-yl methyl-amide], for which the “V2 % inhibition @ 100 nM” value is given as 7%.
For `CC1=C(c2ccc(C(=O)N3Cc4ccc(C(=O)N(C)Cc5cccnc5)n4Cc4ccccc43)cc2C)CCC[C@H]1O.O=C(O)C(O)C(O)C(=O)O` [Example 4, 10-[4-((3R)-3-Hydroxy-2-methyl-cyclohex-1-en-1-yl)-3-methyl-benzoyl]-10,11-dihydro-5H-pyrrolo[2,1-c][1,4]benzodiazepine-3-carboxylic acid methyl-pyridin-3-yl methyl-amide L-(+)-tartaric acid salt], the “V2 % inhibition @ 100 nM” value came to 20%.
The same measure, in the same setting: the same measure for `Cc1cc(C(=O)N2Cc3ccc(C(=O)NCc4ccccn4)n3Cc3ccccc32)ccc1C1=CCCCC1` [Example 5, 10-[4-(1-Cyclohex-1-en-1-yl)-3-methylbenzoyl]-N-(2-pyridinylmethyl)-10,11-dihydro-5H-pyrrolo[2,1-c][1,4]benzodiazepine-3-carboxamide]: 12%; for `Cc1cc(C(=O)N2Cc3ccc(C(=O)NCc4cccnc4)n3Cc3ccccc32)ccc1C1=CCCCC1` [Example 6, 10-[4-(1-Cyclohex-1-en-1-yl)-3-methylbenzoyl]-N-(3-pyridinylmethyl)-10,11-dihydro-5H-pyrrolo[2,1-c][1 ,4]benzodiazepine-3-carboxamide]: 3%; for `Cc1cc(C(=O)N2Cc3ccc(C(=O)NCCc4ccccn4)n3Cc3ccccc32)ccc1C1=CCCCC1` [Example 7, 10-[4-(1-Cyclohex-1-en-1-yl)-3-methylbenzoyl]-N-[2-(2-pyridinyl)ethyl]-10,11-pyrrolo[2,1-c][1,4]benzodiazepine-3-carboxamide]: 6%.
On the same count and under the same terms, the same measure for `Cc1cc(C(=O)N2Cc3ccc(C(=O)N(C)CCc4ccccn4)n3Cc3ccccc32)ccc1C1=CCCCC1` [Example 8, 10-[4-(1-Cyclohex-1-en-1-yl)-3-methylbenzoyl]-N-methyl-N-[2-(2-pyridinyl)ethyl]-10,11-dihydro-5H-pyrrolo[2,1-c][1 ,4]benzodiazepine-3-carboxamide]: 16%; for `Cc1cc(C(=O)N2Cc3ccc(C(=O)N4CCN(c5ccccn5)CC4)n3Cc3ccccc32)ccc1C1=CCCCC1` [Example 9, {10-[4-(1-Cyclohex-1-en-1-yl)-3-methylbenzoyl]-10,11-dihydro-5H-pyrrolo[2,1-c][1,4]benzodiazepin-3-yl}[4-(2-pyridinyl)-1-piperazinyl]methanone]: 21%; for `Cc1cc(C(=O)N2Cc3ccc(C(=O)NCc4ccncc4)n3Cc3ccccc32)ccc1C1=CCCCC1` [Example 10, 10-[4-(1-Cyclohex-1-en-1-yl)-3-methylbenzoyl]-N-(4-pyridinylmethyl)-10,11-dihydro-5H-pyrrolo[2,1-c][1,4]benzodiazepine-3-carboxamide]: 15%.
Same read-out and setting: under `Cc1cc(C(=O)N2Cc3ccc(C(=O)N(C)Cc4cccnc4)n3Cc3ccccc32)ccc1C1=CCCCC1` [Example 11, 10-[4-(1-Cyclohex-1-en-1-yl)-3-methylbenzoyl]-N-methyl-N-(3-pyridinylmethyl)-10,11-dihydro-5H-pyrrolo[2,1-c][1,4]benzodiazepine-3-carboxamide] stands 17%.
In the case of `Cc1cc(C(=O)N2Cc3ccc(C(=O)N4CCN(c5ccncc5)CC4)n3Cc3ccccc32)ccc1C1=CCCCC1` [Example 12, {10-[4-(1-Cyclohex-1-en-1-yl)-3-methylbenzoyl]-10,11-dihydro-5H-pyrrolo[2,1--c][1,4]benzodiazepin-3-yl}[4-(4-pyridinyl)-1-piperazinyl]methanone], the “V2 % inhibition @ 100 nM” value was found to be 21%.
`Cc1cc(C(=O)N2Cc3ccc(C(=O)N(C)CCc4ccncc4)n3Cc3ccccc32)ccc1C1=CCCCC1` [Example 13, 10-[4-(1-Cyclohex-1-en-1-yl)-3-methylbenzoyl]-N-methyl-N-[2-(4-pyridinyl)ethyl]-10,11-dihydro-5H-pyrrolo[2,1-c][1,4]benzodiazepine-3-carboxamide]: the “V2 % inhibition @ 100 nM” value was 12%.
